Here are results for two substances from patent publication US6624141B1, “Protamine fragment compositions and methods of use” (The Regents of The University of Michigan, priority 1999, dated 2003).

Like-named read-outs stand apart in the source and are kept apart here.

One data set relates to aPTT activity of heparin. As to the kind of experiment: Heparin neutralization by aPTT clotting assay. In kind it is biochemical, human. The settings on record: heparin 1 mg. The method, then:
For the aPTT clotting assay, 15 μl of heparin solution (20 μg/ml) was mixed with 15 μl of solution containing various concentrations of protamine (0-60 μg/ml) or LMWP species (0-100 μg/ml). To the mixture, 100 μl of actin cephaloplastin and 100 μl of plasma were added. After 3 min of incubation, 100 μl of 0.02 M calcium chloride (preheated to 37° C.) was added and the clotting time was immediately measured using a fibrometer (Fibrosystem, Becton Dickinson Company, Cockeysville, Md.).

The test system of data set [1] is anti-Xa activity of heparin. Briefly: Heparin neutralization by anti-factor Xa chromogenic assay. In kind it is biochemical, human. The settings on record: heparin 40 μg; half-points of ΔAbs in FIG. 5. The method, then: (§1) Heparin neutralization by protamine and LMWP was also measured in plasma by anti-factor Xa chromogenic assay and activated partial thromboplastin time (aPTT) clotting assay (Yang et al., 1986). In brief, for the anti-factor Xa assay, a series of plasma samples containing 0.4 mg of heparin, 15 IU of ATIII, and various amounts of protamine (0-0.8 mg) or LMWP (0-0.4 mg) were prepared. One hundred microliters of the plasma sample were then mixed with 800 μl of Tris-HCl buffer (pH 7.4), followed by the addition of 100 μl of Factor Xa (7.1 nkat/ml). After a 3 min incubation at 37° C., 200 μl of […] substrate (0.5 mg/ml) were added. The reaction mixture was incubated for 5 min at 37° C. and then quenched by the addition of 200 μl of 20% acetic acid. The absorbance in the solution was measured at 405 nm, and the degree of heparin neutralization is proportional to this measured absorbance.

The test system of data set [2] is anti-Xa activity of CY216 (LMWH). As to the kind of experiment: Neutralization of LMWH (CY216) by anti-Xa chromogenic substrate assay. In kind it is biochemical. The settings on record: dose of 30 μg. The method, then: as §1
Neutralization of the anticoagulant functions of both heparin and LMWH by protamine and LMWP is studied in human plasma using the aPTT clotting assay and the chromagenic anti-Xa and anti-IIa assays (Yang et al., 1986). The aPTT values of the test samples, are measured using a fibrometer (Fibrosystem; Becton-Dickinson, Cockeysville, Md.), and the anti-Xa and anti-IIa activities are measured using the chromagenic substrates S-2222 and S-2238, respectively. […]

Data set [3] is described as follows: Immunogenicity in mice, IgG antibody production by ELISA. In kind it is in vivo. The settings on record: immunized with 50 μg in CFA plus boosters; ELISA on wells coated with the same species. The method, then: The immunogenicity of protamine and LMWP was examined in mice. The production of polyclonal antibodies was performed as described (Cooper and Paterson, 1991). Fifteen thin-skinned albino mice, ten for protamine and five for LMWP were included. Each mouse was immunized with 50 μg of either protamine or LMWP in the complete Freund's adjuvant (CFA). Four weeks later, animals were bled and first booster was given with 5 μg of protamine (or LMWP) in incomplete Freund's adjuvant (IFA). Second and third boosters were given at two-week intervals. Afterwards, blood was collected, allowed to clot, and centrifuged to collect serum. All sera were tested for IgG antibodies using a modified ELISA method (Singh et al., 1982). Protamine or LMWP was used to coat the wells of the microplate in order to capture their related antibodies. The detection antibody was goat-antimouse-IgG-alkaline phosphatase that was reacted with p-nitrophenylphosphate to produce the absorbance readings at 405 nm. The antigenicity of LMWP was examined by following the same ELISA method described above but by utilizing a LMWP-coated microplate for antibody detection in the protamine-immunized mice.

The nature of data set [4]: Binding constant to heparin determined with the heparin sensor. The text has this:
(§2) With the assistance of the heparin sensor and the methodology described previously (Yun et al., 1993), the inventors were able to determine the binding constant of heparin and LMWH to ATIII, protamine, and LMWP.

The nature of data set [5]: Binding constant to LMWH determined with the heparin sensor.
Text: as §2

The conditions of data set [6]: cited from earlier work.
For data set [7] the following is noted: cited from earlier work. The source holds these as a separate data set.
A short description of data set [8]: Blood glucose control in streptozotocin-diabetic rats. In kind it is in vivo. The settings on record: data from 6 rats. The method, then:
Induction of diabetes in rats was carried out by the injection of streptozotocin at a dose of 45 mg/kg body weight. Diabetes was confirmed 24 h after injection by measuring the tail blood glucose with a Lifescan Glucometer (One Touch II).

As for Protamine, in the data set on aPTT activity of heparin, the “amount required to completely neutralize the aPTT activity of heparin” value is on record as ~1.7 mg. In data set [1], the “dose required for 50% heparin neutralization” value was determined as 7 nmol. The “neutralization of the anti-Xa activity of CY216” value in data set [2] turned out to be 60%. Moreover, the “mice with positive reaction for antibodies” value in [3] is 4 out of 10 and four out of ten. Besides, the “Binding Constant to Heparin” value in data set [4] amounted to 89.0 ± 2.0 µM⁻¹; in data set [4] (listed as protamine) it was 89 µM⁻¹. Besides, the “Binding Constant to LMWH” value in data set [5] came to 1.1 ± 0.3 µM⁻¹; in data set [5] (listed as protamine), 1.1 µM⁻¹. For the same substance, the “units of heparin neutralized by each milligram” value is recorded as “approximately 90 units” in [6] (heparin derived from bovine lung tissue) and ~115 units in data set [6] (heparin derived from porcine intestinal mucosa). Also, the pKa entry in data set [7] is “about 10”.

Regarding insulin, in [8], the “overall time span to preserve a low glucose level” value was 360 ± 50 min and the “time required to reach the minimum glucose level” value is 100 ± 20 min.
